By NOAEL is commonly meant the highest tested level that showed no adverse finding. Broadly, the LOAEL is the lowest dose or exposure tested at which an adverse effect was seen.

Series [1] relates to Rattus norvegicus. The settings on record: oral; for LD50: acute, mortality.
Series [2] has as its system Colinus virginianus. The settings on record: oral.
The test system of series [3] is Daphnia magna. The settings on record: chronic/long-term; duration: 21 days; reproduction.
Series [4] has as its system Canidae. The settings on record: chronic; duration: 1 years; oral; Dog Other; histopathology: nonneoplastic.
Series [5] deals with Mus musculus. The settings on record: developmental; development.
Series [6] relates to Apis mellifera. The settings on record: acute; duration: 48 hours; oral; unspecified; mortality.
In series [7] the test system is Hypoaspis aculeifer. The settings on record: chronic/long-term.
The test system of series [8] is Tagia sp.
Series [9] relates to Oryctolagus sp. The settings on record: developmental; development.
The test system of series [10] is Oncorhynchus mykiss.
The mark [11] stands for this setting: reproduction developmental, diet.

The structures appear in SMILES notation. Values after ≈ are worked out from the molar mass of the structure shown. Where only a bound is given, the exact number is not on record here.

Take `NC(Cc1ncn[nH]1)C(=O)O` (stereo not drawn) [1,2,4-Triazole-3-alanine]: the LD50 in series [1] is over 5000 mg/kg-day. The molecule further came in with an LC50 in [2] (acute, diet, mortality) of over 1370 mg/kg-day.

For the molecule `CC(C)(C)C(O)(CCc1ccc(Cl)cc1)Cn1cncn1` (stereo not drawn) [Tebuconazole], the NOEC in [3] was found to be 0.01 mg/L; in series [7] it was 50 mg/kg; in series [8] (chronic/long-term, duration: 8 weeks, reproduction), 10 mg/kg; in series [10] (chronic/long-term, duration: 83 days, growth) it was 0.012 mg/L. The NOAEL in [4] was found to be 3 mg/kg-day. In addition, the LD50 in series [1] is 1700 mg/kg-day; in series [2] (acute, mortality), 1990 mg/kg-day; in series [6], over 83 µg/piece. The NOEL came out at 10 mg/kg-day in series [1] (reproduction developmental, diet, body weight); 5.8 mg/kg-day in series [2] (setting [11]); 10 mg/kg-day in series [9]. Besides, the LOAEL in [5] came out at 10 mg/kg-day. The LC50 in series [2] (acute, diet, mortality) is over 703 mg/kg-day; in series [8] (acute, duration: 14 days, mortality) it was 1380 mg/kg; in series [10] (acute, duration: 96 hours, mortality) it was 4.4 µg/mL (≈ 14.3 µM). The same molecule yielded an LOEL in series [2] (setting [11]) of 12.4 mg/kg-day.
